Data on one compound can be found in PMC8881610 (Nature Communications, 2022).

Changes are numbered by the printed parent chain.

Assay in all cases: Whole-cell binding assay, competition with 125I-GIP1-42
What all share (parameters): acylated tirzepatide to the full-length or modified; Flag; expressed in transfected cells

The target of test [1] is T1, GIPR (Homo sapiens, UniProt P48546, R196A).
T1 sequence (P48546 22-466 R196A): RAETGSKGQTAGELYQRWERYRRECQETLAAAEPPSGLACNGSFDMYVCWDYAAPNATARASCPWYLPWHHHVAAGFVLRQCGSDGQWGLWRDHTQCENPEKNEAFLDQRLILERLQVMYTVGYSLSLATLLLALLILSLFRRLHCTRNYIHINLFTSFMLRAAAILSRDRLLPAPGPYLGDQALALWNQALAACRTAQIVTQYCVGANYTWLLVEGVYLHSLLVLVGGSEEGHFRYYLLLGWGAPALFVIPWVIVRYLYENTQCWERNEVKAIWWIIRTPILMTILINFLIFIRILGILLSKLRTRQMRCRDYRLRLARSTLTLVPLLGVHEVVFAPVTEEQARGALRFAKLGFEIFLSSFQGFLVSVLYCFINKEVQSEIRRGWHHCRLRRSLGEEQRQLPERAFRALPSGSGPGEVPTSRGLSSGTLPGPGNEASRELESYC
The following applies: GIPR R196A, CHO-K1. An outline of the steps:
(§1)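 Transiently transfected CHO-K1 cells expressing WT or mutant GIPR were washed in F-12 with 0.1% BSA or 0.1% casein and 33 mM HEPES, then incubated 2 h at 37 °C. After ice-cold PBS washes, cells were lysed and bound radioactivity counted (CPM).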

The target in test [2] is T2, GIPR (Homo sapiens, UniProt P48546, Q30A).
T2 sequence (P48546 22-466 Q30A): T1 sequence (P48546 22-466 R196A) with Q9A, A175R
The settings on record: GIPR Q30A, CHO-K1. An outline of the steps:
as §1

For test [3], the target named is T3, GIPR (Homo sapiens, UniProt P48546, D191A/Q138A/R196A).
T3 sequence (P48546 22-466 Q138A/D191A/R196A): T1 sequence (P48546 22-466 R196A) with Q117A, D170A
The settings on record: GIPR Q138A/D191A/R196A, CHO-K1. An outline of the steps: as §1

[4] abbreviates: read-out: binding pIC50 (converted).

Turning to `CCCCCCCCCCCCCCCC(=O)N[C@@H](CCC(=O)NCCCC[C@H](NC(=O)[C@H](CC(=O)O)NC(=O)[C@H](CO)NC(=O)[C@@H](NC(=O)[C@H](Cc1ccccc1)NC(=O)[C@@H](NC(=O)CNC(=O)[C@H](CCC(N)=O)NC(=O)C(C)(C)NC(=O)[C@@H](N)Cc1c[nH]cn1)[C@@H](C)O)[C@@H](C)O)C(=O)N[C@@H](CO)C(=O)N[C@@H](CCCCN)C(=O)N[C@@H](Cc1ccc(O)cc1)C(=O)N[C@@H](CC(C)C)C(=O)N[C@@H](CC(=O)O)C(=O)N[C@@H](CCC(=O)O)C(=O)N[C@@H](CCCNC(=N)N)C(=O)N[C@@H](C)C(=O)N[C@@H](C)C(=O)N[C@@H](CCC(N)=O)C(=O)N[C@@H](CC(=O)O)C(=O)N[C@@H](Cc1ccccc1)C(=O)N[C@H](C(=O)N[C@@H](CCC(N)=O)C(=O)N[C@@H](Cc1c[nH]c2ccccc12)C(=O)N[C@@H](CC(C)C)C(=O)N[C@@H](CC(C)C)C(=O)N[C@@H](CC(=O)O)C(=O)NCC(=O)NCC(=O)N1CCC[C@H]1C(=O)N[C@@H](CO)C(=O)N[C@@H](CO)C(=O)NCC(=O)N[C@@H](C)C(=O)N1CCC[C@H]1C(=O)N1CCC[C@H]1C(=O)N1CCC[C@H]1C(=O)N[C@@H](CO)C(N)=O)C(C)C)C(=O)O` [Peptide 20], the “binding Span” value on GIPR [1] worked out at 71.10 ± 3.42 % WT; on GIPR [2], 92.75 ± 4.50 % WT; at GIPR [3] it was 1.03 ± 0.94 % WT. In addition, the IC50 on GIPR [1] (setting [4]) is 0.0145 µM; on GIPR [2] (setting [4]), 0.017 µM; at GIPR [3] (setting [4]), 0.0024 µM.
